The values below come from publication PMC4498724 (Drug Design, Development and Therapy, 2015).

By IC50 is commonly meant the midpoint of a concentration-inhibition curve. Low values mean greater potency in that assay, high ones weaker potency in that assay. In general, inhibition refers to the percentage by which the read-out fell short of the control.

The target of data set [1] is T1, human CK2 holoenzyme (Homo sapiens, UniProt P68400). The data set can be described thus: biochemical. Conditions: for inhibition at 10 µM: read-out: CK2 inhibition % at 10 µM.
T1 sequence (P68400 whole entry): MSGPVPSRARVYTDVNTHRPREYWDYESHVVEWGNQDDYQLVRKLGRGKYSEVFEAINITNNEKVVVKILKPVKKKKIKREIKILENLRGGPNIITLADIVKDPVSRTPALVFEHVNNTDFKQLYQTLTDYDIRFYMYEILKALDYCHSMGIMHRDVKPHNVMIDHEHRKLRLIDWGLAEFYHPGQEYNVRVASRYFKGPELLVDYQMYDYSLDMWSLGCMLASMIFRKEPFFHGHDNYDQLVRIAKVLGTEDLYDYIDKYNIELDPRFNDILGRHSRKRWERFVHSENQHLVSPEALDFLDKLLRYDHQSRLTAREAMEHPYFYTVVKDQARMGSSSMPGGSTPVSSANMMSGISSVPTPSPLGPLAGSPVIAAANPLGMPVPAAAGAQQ
T1 sequence (P67870 whole entry partner): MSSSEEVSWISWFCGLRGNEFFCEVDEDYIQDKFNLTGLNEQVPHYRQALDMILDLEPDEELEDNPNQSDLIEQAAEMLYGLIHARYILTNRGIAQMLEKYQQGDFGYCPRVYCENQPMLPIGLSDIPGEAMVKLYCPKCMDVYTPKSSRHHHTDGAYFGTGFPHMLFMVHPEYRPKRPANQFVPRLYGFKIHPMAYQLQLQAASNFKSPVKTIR
Data set [2] concerns the target T2, ABCG2 (Homo sapiens, UniProt Q9UNQ0).
T2 sequence (Q9UNQ0 1-655): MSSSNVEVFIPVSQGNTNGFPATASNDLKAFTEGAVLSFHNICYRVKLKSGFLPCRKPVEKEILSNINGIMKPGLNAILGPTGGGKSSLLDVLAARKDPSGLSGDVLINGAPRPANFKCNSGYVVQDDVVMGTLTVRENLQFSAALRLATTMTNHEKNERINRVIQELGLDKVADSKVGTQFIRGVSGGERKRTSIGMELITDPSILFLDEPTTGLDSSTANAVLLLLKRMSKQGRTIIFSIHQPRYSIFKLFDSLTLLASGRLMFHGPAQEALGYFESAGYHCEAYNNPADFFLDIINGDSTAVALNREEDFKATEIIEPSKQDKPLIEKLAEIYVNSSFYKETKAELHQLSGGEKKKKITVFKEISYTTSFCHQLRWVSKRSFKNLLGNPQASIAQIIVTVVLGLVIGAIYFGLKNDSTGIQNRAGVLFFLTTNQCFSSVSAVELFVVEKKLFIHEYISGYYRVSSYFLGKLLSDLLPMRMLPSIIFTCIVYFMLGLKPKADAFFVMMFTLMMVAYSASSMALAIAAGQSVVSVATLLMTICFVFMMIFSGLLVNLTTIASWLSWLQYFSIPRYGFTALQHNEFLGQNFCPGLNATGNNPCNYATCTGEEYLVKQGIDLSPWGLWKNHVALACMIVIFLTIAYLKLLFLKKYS
Nature of the data set: Vanadate-sensitive ATPase activity of ABCG2 in Sf9 insect cell membranes. Conditions: 2 μM compound; for Stimulation of vanadate-sensitive ABCG2 ATPase activity: basal activity without inhibitor taken as 100%.

Data set [3] addresses T1, human CK2 holoenzyme. Conditions: IC50 (CK2) divided by IC50 (ABCG2) of Table 1.
The target in data set [4] is T2, ABCG2. The data set can be described thus: Inhibition of ABCG2-mediated mitoxantrone efflux in ABCG2-transfected cells. The class given is cell-based.
Data set [5] addresses MRP1/ABCC1 (Homo sapiens, UniProt P33527). The data set can be described thus: Inhibition of MRP1-mediated calcein efflux in HEK293-ABCC1 cells. The data set is classed as cell-based. Conditions: 2 μM or 10 μM; 35 μM verapamil taken as 100%.
Data set [6] deals with Wild-type HEK293 cells. The data set can be described thus: Intrinsic cytotoxicity, MTT cell-survival assay. Conditions: 72 hours of treatment. (Tetrazolium dyes change colour on reduction, which living cells bring about.)

Chain of MRP1/ABCC1 (P33527 whole entry): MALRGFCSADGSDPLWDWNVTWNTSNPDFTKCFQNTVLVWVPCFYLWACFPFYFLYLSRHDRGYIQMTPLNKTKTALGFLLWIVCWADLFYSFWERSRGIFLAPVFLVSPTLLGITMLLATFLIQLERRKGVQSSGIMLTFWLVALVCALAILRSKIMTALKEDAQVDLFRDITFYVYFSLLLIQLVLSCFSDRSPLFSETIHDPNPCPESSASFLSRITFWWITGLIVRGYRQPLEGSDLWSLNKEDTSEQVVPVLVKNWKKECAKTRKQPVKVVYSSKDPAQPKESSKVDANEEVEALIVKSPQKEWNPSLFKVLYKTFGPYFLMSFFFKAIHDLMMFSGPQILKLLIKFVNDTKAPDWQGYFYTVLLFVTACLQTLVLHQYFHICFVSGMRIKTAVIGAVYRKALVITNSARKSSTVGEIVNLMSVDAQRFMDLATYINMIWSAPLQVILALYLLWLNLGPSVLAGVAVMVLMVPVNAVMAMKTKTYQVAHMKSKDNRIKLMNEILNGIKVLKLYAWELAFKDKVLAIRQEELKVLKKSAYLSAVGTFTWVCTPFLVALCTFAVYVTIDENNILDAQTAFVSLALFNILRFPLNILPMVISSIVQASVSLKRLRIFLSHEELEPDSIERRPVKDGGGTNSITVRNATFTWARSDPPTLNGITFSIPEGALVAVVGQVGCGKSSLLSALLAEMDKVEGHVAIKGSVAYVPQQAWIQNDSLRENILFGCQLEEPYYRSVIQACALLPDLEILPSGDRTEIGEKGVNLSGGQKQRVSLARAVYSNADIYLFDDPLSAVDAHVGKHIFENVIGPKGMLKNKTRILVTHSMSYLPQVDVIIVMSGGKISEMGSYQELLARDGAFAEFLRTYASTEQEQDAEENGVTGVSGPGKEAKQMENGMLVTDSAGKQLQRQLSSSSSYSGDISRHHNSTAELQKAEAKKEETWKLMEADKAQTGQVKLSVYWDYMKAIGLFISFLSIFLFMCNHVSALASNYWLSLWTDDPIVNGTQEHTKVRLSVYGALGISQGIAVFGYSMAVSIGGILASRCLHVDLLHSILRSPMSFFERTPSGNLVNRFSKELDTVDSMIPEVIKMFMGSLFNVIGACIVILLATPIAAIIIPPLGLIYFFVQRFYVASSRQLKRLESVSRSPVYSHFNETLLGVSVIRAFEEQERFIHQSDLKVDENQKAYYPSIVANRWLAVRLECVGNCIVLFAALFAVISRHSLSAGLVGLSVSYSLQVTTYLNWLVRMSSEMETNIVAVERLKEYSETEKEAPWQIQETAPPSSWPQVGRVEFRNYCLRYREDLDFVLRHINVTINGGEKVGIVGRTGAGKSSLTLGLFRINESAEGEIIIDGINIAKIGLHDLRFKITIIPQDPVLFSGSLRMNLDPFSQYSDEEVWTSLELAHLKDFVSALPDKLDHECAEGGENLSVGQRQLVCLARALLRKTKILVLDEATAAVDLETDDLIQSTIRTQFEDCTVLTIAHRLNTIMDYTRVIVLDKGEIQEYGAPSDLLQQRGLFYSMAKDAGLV

Turning to `O=C1c2ccccc2-c2c1c1c(O)cccc1n2CCc1ccccc1` [Compound 5c, 9-Hydroxy-5-(2-phenylethyl)-5H-indeno[1,2-b]indole-10-one], in data set [1], the IC50 was 7.5 µM and the inhibition at 10 µM was 57%. Besides, the “Stimulation of vanadate-sensitive ABCG2 ATPase activity” value (shortened to “Stimulation”) in data set [2] was 2- to 4.5 fold. In data set [3], this molecule displayed an AGCG2/CK2 of 47. The same molecule came in with an IC50 in data set [4] of 0.16 ± 0.02 µM. The “Inhibition of MRP1-mediated calcein efflux” value in data set [5] is “very limited, if any, inhibition”. In addition, the “Cytotoxicity IG50” value in data set [6] stood at 42.7 ± 9.7 µM.

As for `O=C1c2ccccc2-c2c1c1c(O)cccc1n2CCCc1ccccc1` [Compound 5d, 9-Hydroxy-5-(3-phenylpropyl)-5H-indeno[1,2-b]indole-10-one], in data set [1], the IC50 was roughly 20 µM and the inhibition at 10 µM is 27%. Moreover, in data set [2], the “Stimulation” value is listed as 2- to 4.5 fold. In data set [4], this molecule had an IC50 of 0.64 ± 0.23 µM.

`Cc1cc(O)c2c3c(n(CCc4ccccc4)c2c1)-c1ccccc1C3=O` [Compound 5f, 9-Hydroxy-7-methyl-5-(2-phenylethyl)-5H-indeno[1,2-b]indole-10-one]: in data set [2], the “Stimulation” value was 2- to 4.5 fold. Further, inhibition in data set [4] was half-maximal at 0.16 ± 0.01 µM (IC50). In addition, the “Inhibition of MRP1-mediated calcein efflux” value in data set [5] is reported as “very limited, if any, inhibition”. The “Cytotoxicity IG50” value in data set [6] was found to be 42.3 ± 2.8 µM.

Consider `O=C1c2ccccc2-c2c1c1c(O)cc(-c3ccccc3)cc1n2CCc1ccccc1` [Compound 5g, 9-Hydroxy-7-phenyl-5-(2-phenylethyl)-5H-indeno[1,2-b]indole-10-one], for which the IC50 was roughly 11 µM in data set [1] and 0.51 ± 0.09 µM in data set [4]. For the same molecule, the “Stimulation” value in data set [2] is reported as 2- to 4.5 fold.

As to `COc1ccccc1CCn1c2c(c3c(O)cccc31)C(=O)c1ccccc1-2` [Compound 5h, 9-Hydroxy-5-[2-(2-methoxyphenyl)ethyl]-5H-indeno[1,2-b]indole-10-one], the results for the IC50 in data set [1] and in data set [4] were 1.3 µM and 0.15 ± 0.01 µM, respectively. Also, the “Stimulation” value in data set [2] is recorded as 2- to 4.5 fold. The “Inhibition of MRP1-mediated calcein efflux” value in data set [5] is given as “very limited, if any, inhibition”. For the same molecule, in data set [6], the “Cytotoxicity IG50” value came out at 54 ± 14 µM.

For `COc1cccc(CCn2c3c(c4c(O)cccc42)C(=O)c2ccccc2-3)c1` [Compound 5i, 9-Hydroxy-5-[2-(3-methoxyphenyl)ethyl]-5H-indeno[1,2-b]indole-10-one], in data set [1], the IC50 was roughly 11.5 µM and the inhibition at 10 µM amounted to 44%. In addition, the “Stimulation” value in data set [2] is listed as 2- to 4.5 fold. Besides, the IC50 in data set [4] stood at 0.37 ± 0.09 µM. The “Cytotoxicity IG50” value in data set [6] is 45.7 ± 6.1 µM.

For `COc1ccc(CCn2c3c(c4c(O)cccc42)C(=O)c2ccccc2-3)cc1` [Compound 5j, 9-Hydroxy-5-[2-(4-methoxyphenyl)ethyl]-5H-indeno[1,2-b]indole-10-one], the IC50 in data set [1] was roughly 14 µM. Also, in data set [2], the “Effect on ABCG2 basal ATPase activity” value is listed as “maximal stimulation” and the “Stimulation” value is listed as 2- to 4.5 fold. Besides, the IC50 in data set [4] was 0.2 ± 0.01 µM.

As for `O=c1ccc(=O)c2c1c1c(=O)c3ccccc3c1n2CCc1ccccc1` [Compound 6c, 5-(2-Phenylethyl)-5H-indeno[1,2-b]indole-6,9,10-trione], in data set [1], the IC50 was roughly 13 µM and the inhibition at 10 µM turned out to be 40%. For the same molecule, in data set [2], the “Effect on ABCG2 basal ATPase activity” value was “did not produce any effect”. Besides, the IC50 in data set [4] is roughly 30 µM. Moreover, the “Cytotoxicity IG50” value in data set [6] came to 6.9 ± 2.1 µM.

On to `O=c1ccc(=O)c2c1c1c(=O)c3ccccc3c1n2CCCc1ccccc1` [Compound 6d, 5-(3-Phenylpropyl)-5H-indeno[1,2-b] indole-6,9,10-trione], for which, in data set [1], the IC50 amounted to 6.4 µM and the inhibition at 10 µM is 60%. The same molecule registered an IC50 in data set [4] of roughly 15 µM. In data set [6], the “Cytotoxicity IG50” value was 6.8 ± 0.5 µM.

On to `O=c1cc(-c2ccccc2)c(=O)c2c1c1c(=O)c3ccccc3c1n2Cc1ccccc1` [Compound 6e, 5-Benzyl-7-phenyl-5H-indeno[1,2-b]indole-6,9,10-trione], for which, in data set [1], the IC50 was roughly 13 µM and the inhibition at 10 µM is 40%. Also, the “Effect on ABCG2 basal ATPase activity” value in data set [2] is reported as “did not produce any effect”. The molecule also showed an IC50 in data set [4] of roughly 13 µM. Also, the “Cytotoxicity IG50” value in data set [6] amounted to 7.1 ± 1.1 µM.

As to `Cc1cc(=O)c2c3c(=O)c4ccccc4c3n(CCc3ccccc3)c2c1=O` [Compound 6f, 7-Methyl-5-(2-phenylethyl)-5H-indeno[1,2-b]indole-6,9,10-trione], the “Effect on ABCG2 basal ATPase activity” value in data set [2] is “did not produce any effect”. Besides, half-maximal inhibition in data set [4] (IC50) required 0.84 ± 0.31 µM. Besides, the “Inhibition of MRP1-mediated calcein efflux” value in data set [5] is on record as “very limited, if any, inhibition”. In data set [6], the “Cytotoxicity IG50” value was determined as 15.6 ± 5.9 µM.

For the molecule `O=c1cc(-c2ccccc2)c(=O)c2c1c1c(=O)c3ccccc3c1n2CCc1ccccc1` [Compound 6g, 7-Phenyl-5-(2-phenylethyl)-5H-indeno[1,2-b]indole-6,9,10-trione], in data set [1], the IC50 was roughly 11.5 µM and the inhibition at 10 µM was found to be 44%. In data set [2], the “Effect on ABCG2 basal ATPase activity” value is listed as “very limited stimulation”. Also, the IC50 in data set [4] came to 0.43 ± 0.01 µM. In addition, the “Inhibition of MRP1-mediated calcein efflux” value in data set [5] is “very limited, if any, inhibition”. Besides, the “Cytotoxicity IG50” value in data set [6] amounted to 3.7 ± 2.2 µM.
